Assay [1] has as its target human cathepsin K (UniProt P43236, Y175D/V274L, species not given). Description: Cathepsin K Assay. The format is biochemical. The note with it: IP from dose response curve; Z-Leu-Arg-AMC substrate, pH 5.5; read-out: hrbCat K (IP (nM)).
In assay [2] the target is T1, human cathepsin F (Homo sapiens, UniProt Q9UBX1).
T1 sequence (Q9UBX1 271-484): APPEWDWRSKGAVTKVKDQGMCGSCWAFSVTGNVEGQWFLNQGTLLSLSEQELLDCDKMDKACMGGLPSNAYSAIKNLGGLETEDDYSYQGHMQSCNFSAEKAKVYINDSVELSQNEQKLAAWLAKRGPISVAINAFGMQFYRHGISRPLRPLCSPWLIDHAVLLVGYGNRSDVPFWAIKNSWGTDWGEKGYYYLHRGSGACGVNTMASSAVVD
Description: Cathepsin F Assay. The format is biochemical. The note with it: IP from dose response curve; Z-Phe-Arg-AMC substrate, pH 5.5; read-out: hCat F (IP (nM)). In outline: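 Human cathepsin F (10 nM) preincubated 15 min at room temperature with compounds in 50 mM MES pH 5.5, 2.5 mM EDTA, 2.5 mM DTT, 10% DMSO. Z-Phe-Arg-AMC (8 μM) added; AMC release read by fluorescence (Ex 360/Em 460 nm) over 20 min, inhibition fit to dose-response model.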

Each structure is given as a SMILES string.

On to `Cc1c(-c2ccc(N3CCS(=O)(=O)CC3)cc2)c([C@@H]2CCCC[C@H]2C(=O)N[C@@H](C)C#N)nn1-c1ccc(F)cn1` [Example 66, (1R,2R)-N-((S)-1-cyanoethyl)-2-(4-(4-(1,1-dioxidothiomorpholino)phen-yl)-1-(5-fluoropyridin-2-yl)-5-methyl-1H-pyrazol-3-yl)cyclohexanecarboxamide], for which the IC50 in assay [1] came out at 3.6 nM; in assay [2], 653 nM.
With `C[C@@H](C#N)NC(=O)[C@@H]1CC(F)(F)CC[C@H]1c1nn(-c2ccc(F)cn2)c(CO)c1-c1ccc(N2CCS(=O)(=O)CC2)cc1` [Example 67, (1R,2R)-N-((S)-1-cyanoethyl)-2-(4-(4-(1,1-dioxidothiomorpholino)phen-yl)-1-(5-fluoropyridin-2-yl)-5-(hydroxymethyl)-1H-pyrazol-3-yl)-5,5-difluorocyclohexanecarbox-amide], the IC50 in assay [1] turned out to be 1.24 nM; in assay [2], 146 nM.
In the case of `N#CC1(NC(=O)[C@@H]2CC(F)(F)CC[C@H]2c2nn(-c3ccc(F)cn3)c(CO)c2-c2ccc(N3CCS(=O)(=O)CC3)cc2)CC1` [Example 68, (1R,2R)-N-(1-cyanocyclopropyl)-2-(4-(4-(1,1-dioxidothiomorpholino)phen-yl)-1-(5-fluoropyridin-2-yl)-5-(hydroxymethyl)-1H-pyrazol-3-yl)-5,5-difluorocyclohexanecarbox-amide], the results for the IC50 in assay [1] and in assay [2] were 1.41 nM and 125 nM, respectively.
On to `CC(C)[C@@H](C#N)NC(=O)[C@@H]1CC(F)(F)CC[C@H]1c1nn(-c2ccc(F)cn2)c(CO)c1-c1ccc(N2CCS(=O)(=O)CC2)cc1` [Example 69, (1R,2R)-N-((S)-1-cyano-2-methylpropyl)-2-(4-(4-(1,1-dioxidothiomorpholino)phen-yl)-1-(5-fluoropyridin-2-yl)-5-(hydroxymethyl)-1H-pyrazol-3-yl)-5,5-difluorocyclohexanecarbox-amide], for which the IC50 in assay [1] was 2.68 nM; in assay [2] it was 225 nM.
In the case of `N#CC1(NC(=O)[C@@H]2CC(F)(F)CC[C@H]2c2nn(-c3ccc(F)cn3)c(CO)c2-c2ccc(N3CCS(=O)(=O)CC3)cc2)CC1` [Example 70, (1R,2R)-N-(1-cyanocyclopropyl)-2-(4-(4-(1,1-dioxidothiomorpholino)phen-yl)-1-(5-fluoropyridin-2-yl)-5-(hydroxymethyl)-1H-pyrazol-3-yl)-5,5-difluorocyclohexanecarbox-amide], the results for the IC50 in assay [1] and in assay [2] were 1.9 nM and 185 nM, respectively.
Turning to `N#CC1(NC(=O)[C@@H]2CC(F)(F)CC[C@H]2c2nn(-c3ccc(F)cn3)c(C(F)F)c2-c2ccc(N3CCS(=O)(=O)CC3)cc2)CC1` [Example 71, (1R,2R)-N-(1-cyanocyclopropyl)-2-(5-(difluoromethyl)-4-(4-(1,1-dioxidothiomorpholino)phen-yl)-1-(5-fluoropyridin-2-yl)-1H-pyrazol-3-yl)-5,5-difluorocyclohexanecarbox-amide], the values for the IC50 in assay [1] and in assay [2] were 2.35 nM and 149 nM, respectively.
In the case of `C[C@@H](C#N)NC(=O)[C@@H]1CC(F)(F)CC[C@H]1c1nn2ccccc2c1-c1ccc(N2CCS(=O)(=O)CC2)cc1` [Example 72, (1R,2R)-N-((S)-1-cyanoethyl)-2-(3-(4-(1,1-dioxidothiomorpholino)phen-yl)pyrazolo[1,5-a]pyridin-2-yl)-5,5-difluorocyclohexanecarbox-amide], the IC50 in assay [1] turned out to be 2.66 nM; in assay [2] it was 230 nM.
In the same order, the values of `CC(C)[C@@H](C#N)NC(=O)[C@@H]1CC(F)(F)CC[C@H]1c1nn2ccccc2c1-c1ccc(N2CCS(=O)(=O)CC2)cc1` [Example 73, (1R,2R)-N-((S)-1-cyano-2-methylpropyl)-2-(3-(4-(1,1-dioxidothiomorpholino)phen-yl)pyrazolo[1,5-a]pyridin-2-yl)-5,5-difluorocyclohexanecarbox-amide] are 5.19 nM and 269 nM.
In the same order, the values of `N#CCNC(=O)[C@@H]1CC(F)(F)CC[C@H]1c1nn(-c2ccc(F)cc2)cc1-c1ccc(N2CCS(=O)(=O)CC2)cc1` [Example 81, (1R,2R)-N-(cyanomethyl)-2-(4-(4-(1,1-dioxidothiomorpholino)phen-yl)-1-(4-fluorophenyl)-1H-pyrazol-3-yl)-5,5-difluorocyclohexanecarbox-amide] are 0.37 nM and 11 nM.
Turning to `N#CCNC(=O)[C@H]1CC(F)(F)CC[C@@H]1c1nn(-c2ccc(F)cc2)cc1-c1ccc(N2CCS(=O)(=O)CC2)cc1` [Example 82, (1S,2S)-N-(cyanomethyl)-2-(4-(4-(1,1-dioxidothiomorpholino)phen-yl)-1-(4-fluorophenyl)-1H-pyrazol-3-yl)-5,5-difluorocyclohexanecarbox-amide], the IC50 is 144 nM in assay [1] and 1400 nM in assay [2].
With `N#CC1(NC(=O)[C@@H]2CC(F)(F)CC[C@H]2c2nn(-c3ccc(F)cc3)cc2-c2ccc(N3CCS(=O)(=O)CC3)cc2)CC1` [Example 83, (1R,2R)-N-(1-cyanocyclopropyl)-2-(4-(4-(1,1-dioxidothiomorpholino)phen-yl)-1-(4-fluorophenyl)-1H-pyrazol-3-yl)-5,5-difluorocyclohexanecarbox-amide], the IC50 in assay [1] worked out at 0.47 nM; in assay [2], 28 nM.
Regarding `N#CC1(NC(=O)[C@H]2CC(F)(F)CC[C@@H]2c2nn(-c3ccc(F)cc3)cc2-c2ccc(N3CCS(=O)(=O)CC3)cc2)CC1` [Example 84, (1S,2S)-N-(1-cyanocyclopropyl)-2-(4-(4-(1,1-dioxidothiomorpholino)phen-yl)-1-(4-fluorophenyl)-1H-pyrazol-3-yl)-5,5-difluorocyclohexanecarbox-amide], the values for the IC50 in assay [1] and in assay [2] were 51.6 nM and 1050 nM, respectively.
Consider `N#CC1(NC(=O)[C@@H]2CCCC[C@H]2c2nn(-c3ccc(F)cc3)cc2-c2ccc(N3CCS(=O)(=O)CC3)cc2)CC1` [Example 85, (1R,2R)-N-(1-cyanocyclopropyl)-2-(4-(4-(1,1-dioxidothiomorpholino)phen-yl)-1-(4-fluorophenyl)-1H-pyrazol-3-yl)cyclohexanecarboxamide], for which the values for the IC50 in assay [1] and in assay [2] were 0.69 nM and 352 nM, respectively.
For the compound `N#CC1(NC(=O)[C@@H]2CCCC[C@H]2c2nn(-c3cccc(F)c3)cc2-c2ccc(N3CCS(=O)(=O)CC3)cc2)CC1` [Example 86, (1R,2R)-N-(1-cyanocyclopropyl)-2-(4-(4-(1,1-dioxidothiomorpholino)phen-yl)-1-(3-fluorophenyl)-1H-pyrazol-3-yl)cyclohexanecarboxamide], the IC50 is 0.33 nM in assay [1] and 268 nM in assay [2].
As to `COc1ccc(-n2cc(-c3ccc(N4CCS(=O)(=O)CC4)cc3)c([C@@H]3CCCC[C@H]3C(=O)NC3(C#N)CC3)n2)cc1` [Example 87, (1R,2R)-N-(1-cyanocyclopropyl)-2-(4-(4-(1,1-dioxidothiomorpholino)phen-yl)-1-(4-methoxyphenyl)-1H-pyrazol-3-yl)cyclohexanecarboxamide], the IC50 in assay [1] was 0.99 nM; in assay [2], 740 nM.
Regarding `N#CC1(NC(=O)[C@@H]2CCCC[C@H]2c2nn(-c3ccc(F)cc3)cc2-c2ccc(C(=O)N3CCOCC3)cc2)CC1` [Example 88, (1R,2R)-N-(1-cyanocyclopropyl)-2-(1-(4-fluorophenyl)-4-(4-(morpholine-4-carbonyl)phenyl)-1H-pyrazol-3-yl)cyclohexanecarboxamide], the IC50 stood at 6.9 nM in assay [1] and 1010 nM in assay [2].
As to `N#CC1(NC(=O)[C@@H]2CCCC[C@H]2c2nn(-c3ccc(F)cc3)cc2-c2ccc(C(=O)N3CCNC(=O)C3)cc2)CC1` [Example 89, (1R,2R)-N-(1-cyanocyclopropyl)-2-(1-(4-fluorophenyl)-4-(4-(3-oxopiperazine-1-carbonyl)phenyl)-1H-pyrazol-3-yl)cyclohexanecarboxamide], the IC50 was 9.37 nM in assay [1] and 989 nM in assay [2].
For `N#CC1(NC(=O)[C@@H]2CCCC[C@H]2c2nn(-c3ccc(F)cc3)cc2-c2ccc(C(=O)N3CCC(O)CC3)cc2)CC1` [Example 90, (1R,2R)-N-(1-cyanocyclopropyl)-2-(1-(4-fluorophenyl)-4-(4-(4-hydroxypiperidine-1-carbonyl)phenyl)-1H-pyrazol-3-yl)cyclohexanecarboxamide], the IC50 in assay [1] is 8.01 nM; in assay [2] it was 1760 nM.
Take `N#Cc1ccccc1-n1cc(-c2ccc(N3CCS(=O)(=O)CC3)cc2)c([C@@H]2CCCC[C@H]2C(=O)NC2(C#N)CC2)n1` [Example 91, (1R,2R)-N-(1-cyanocyclopropyl)-2-(1-(2-cyanophenyl)-4-(4-(1,1-dioxidothiomorpholino)phen-yl)-1H-pyrazol-3-yl)cyclohexanecarboxamide]: the results for the IC50 in assay [1] and in assay [2] were 1.02 nM and 1020 nM, respectively.
For the compound `COc1ccccc1-n1cc(-c2ccc(N3CCS(=O)(=O)CC3)cc2)c([C@@H]2CCCC[C@H]2C(=O)NC2(C#N)CC2)n1` [Example 92, (1R,2R)-N-(1-cyanocyclopropyl)-2-(4-(4-(1,1-dioxidothiomorpholino)phen-yl)-1-(2-methoxyphenyl)-1H-pyrazol-3-yl)cyclohexanecarboxamide], the values for the IC50 in assay [1] and in assay [2] were 0.95 nM and 484 nM, respectively.
Take `CS(=O)(=O)N1CCN(C(=O)c2ccc(-c3cn(-c4ccc(F)cc4)nc3[C@@H]3CCCC[C@H]3C(=O)NC3(C#N)CC3)cc2)CC1` [Example 93, (1R,2R)-N-(1-cyanocyclopropyl)-2-(1-(4-fluorophenyl)-4-(4-(4-(methylsulfonyl)piperazine-1-carbonyl)phenyl)-1H-pyrazol-3-yl)cyclohexanecarboxamide]: the IC50 in assay [1] stood at 5.02 nM; in assay [2], 2350 nM.

These data come from patent US9656990B2, “Cathepsin cysteine protease inhibitors” (Merck Sharp & Dohme Corp., priority 2014, dated 2017).
